Blank lines part the entries; values can stand above or below the compound they belong to.
Tests used:
cMET = cMET (Homo sapiens, UniProt P08581); assay: Evaluation of inhibitory activity against MET (TR-FRET); assay type: biochemical; details: TR-FRET kinase assay, cMET protein
Description: In addition, in order to measure the enzyme activity inhibition for cMET, the evaluation was performed in the same manner as the enzyme activity inhibition measurement experiment for the RON.
(§1) Specifically, the compound was prepared to a concentration of 1 mM with 100% DMSO and was diluted 10 times in a stepwise manner through 3-fold dilution. 2 ul of the compound diluted in a stepwise manner was added to a 96-well-plate containing 48 ul of a 1× kinase reaction buffer (50 mM HEPES (pH 7.4), 0.05% BSA, 0.005% Tween-20, 1 mM DTT, 0.5 mM MnCl2, 20 mM MgCl2).
The cMET protein was diluted to a concentration of 263 nM with a cMET storage buffer (50 mM Tris-HCl (pH 7.5), 150 mM NaCl, 0.05% Brij35, 1 mM DTT, 10% Glycerol), and then diluted again to a concentration of 2 nM with a 1× kinase reaction buffer. As a substrate cocktail, a MET-specific substrate mixture (5 uM TK peptide, […]) at a concentration 2 times the final reaction concentration.
(§2) Thereafter, a 384-well-plate was prepared, and 2.5 μl of each of the diluted compounds of Examples was added to a corresponding well of experimental group wells, and 2.5 μl of a 4% DMSO solution was dispensed into high control wells and low control wells.
(§3) Thereafter, 2.5 μL of 2 nM cMET was dispensed into the high control wells and the experimental group wells, and 2.5 μL of a 1× kinase reaction buffer was added to the low control wells, and the RON and the reaction buffer were centrifuged at room temperature for 40 seconds at 1000 RPM, and then incubated at room temperature for 20 to 30 minutes. Then, 5 uL of a substrate cocktail (2×) was dispensed into all wells, centrifuged at room temperature for 40 seconds at 1000 RPM, and then incubated at room temperature for 60 minutes. Thereafter, 5 uL of 90 mM EDTA was added to all wells to terminate the reaction, and then incubated again at room temperature for 5 minutes. Thereafter, 5 uL of a 4× phosphotyrosine antibody (Perkin Elmer) containing europium was added to all wells, and then incubated at room temperature for 60 minutes. After the incubation, the 384-well-plate was read with a Vison plate reader. At this time, the excitation wavelength was 340 nm, and the emission wavelength was 620 nm and 665 nm. The 1050 value of the compound of each Example was derived using the GraphPd Prism7 program.

RON = RON (Homo sapiens, UniProt Q04912); assay: Evaluation of inhibitory activity against RON (TR-FRET); assay type: biochemical; details: TR-FRET kinase assay, RON protein
Chain of RON (Q04912 25-1400, species assumed): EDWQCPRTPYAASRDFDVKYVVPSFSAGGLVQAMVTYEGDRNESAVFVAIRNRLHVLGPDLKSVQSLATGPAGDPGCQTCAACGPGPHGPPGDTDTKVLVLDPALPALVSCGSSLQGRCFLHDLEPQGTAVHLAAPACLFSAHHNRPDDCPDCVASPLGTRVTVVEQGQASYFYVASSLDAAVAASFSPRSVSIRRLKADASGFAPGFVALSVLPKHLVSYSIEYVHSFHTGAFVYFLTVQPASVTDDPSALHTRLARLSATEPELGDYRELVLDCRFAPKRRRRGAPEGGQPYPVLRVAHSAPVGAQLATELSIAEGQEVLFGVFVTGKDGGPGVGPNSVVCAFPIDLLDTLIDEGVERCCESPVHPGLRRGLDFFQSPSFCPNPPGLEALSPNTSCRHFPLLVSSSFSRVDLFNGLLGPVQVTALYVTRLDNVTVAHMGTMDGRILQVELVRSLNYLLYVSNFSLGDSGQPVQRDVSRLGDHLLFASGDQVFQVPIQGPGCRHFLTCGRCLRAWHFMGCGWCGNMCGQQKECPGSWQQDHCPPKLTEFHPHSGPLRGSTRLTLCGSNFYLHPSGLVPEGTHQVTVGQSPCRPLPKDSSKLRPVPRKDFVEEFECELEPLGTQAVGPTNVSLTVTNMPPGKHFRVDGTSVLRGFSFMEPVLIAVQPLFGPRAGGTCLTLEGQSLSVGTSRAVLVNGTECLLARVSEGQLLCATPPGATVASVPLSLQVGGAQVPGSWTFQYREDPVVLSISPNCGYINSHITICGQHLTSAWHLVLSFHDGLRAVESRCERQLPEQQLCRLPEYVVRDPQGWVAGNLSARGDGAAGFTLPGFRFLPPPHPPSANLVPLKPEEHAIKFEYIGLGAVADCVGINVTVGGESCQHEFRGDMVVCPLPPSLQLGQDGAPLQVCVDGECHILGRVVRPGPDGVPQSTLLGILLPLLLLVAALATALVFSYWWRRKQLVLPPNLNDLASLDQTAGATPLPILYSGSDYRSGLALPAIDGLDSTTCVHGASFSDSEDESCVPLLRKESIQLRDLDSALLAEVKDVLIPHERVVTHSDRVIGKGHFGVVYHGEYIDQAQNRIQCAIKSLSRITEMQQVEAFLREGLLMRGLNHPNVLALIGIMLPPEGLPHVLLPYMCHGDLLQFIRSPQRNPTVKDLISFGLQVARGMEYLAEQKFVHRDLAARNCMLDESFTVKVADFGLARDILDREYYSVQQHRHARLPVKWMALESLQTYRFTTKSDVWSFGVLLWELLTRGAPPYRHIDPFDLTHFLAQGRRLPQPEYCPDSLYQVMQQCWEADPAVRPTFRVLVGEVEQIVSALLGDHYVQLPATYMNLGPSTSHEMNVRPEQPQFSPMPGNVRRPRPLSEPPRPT
Description: In order to measure the inhibitory activity of each of the compounds of Examples against RON, the IC50 of each of the compounds was measured using a Time-Resolved Fluorescence Energy Transfer Chemistry (TR-FRET).
as §1, with “a 1×kinase” for “a 1× kinase”, “7.4), 0.01%” for “7.4), 0.05% BSA, 0.005%”, “Tween-20, 5” for “Tween-20, 1”, “mM Na3VO4, 2 mM EGTA, 10” for “mM MnCl2, 20”
The RON protein was diluted to a concentration of 49.3 nM with an RON storage buffer (50 mM Tris-HCl (pH 7.5), 150 mM NaCl, 0.5 mM EDTA, 0.02% Triton X-100), and then diluted again to a concentration of 0.4 nM with a 1×kinase reaction buffer. As a substrate cocktail, a RON-specific substrate mixture (40 uM ULight-labeled Poly GT, 100 nM ATP) at a concentration 2 times the final reaction concentration.
as §2
as §3, with “of 0.4” for “of 2”, “nM RON” for “nM cMET”, “of 30” for “of 90”, “The IC50” for “The 1050”

Chain of cMET (P08581 25-1390): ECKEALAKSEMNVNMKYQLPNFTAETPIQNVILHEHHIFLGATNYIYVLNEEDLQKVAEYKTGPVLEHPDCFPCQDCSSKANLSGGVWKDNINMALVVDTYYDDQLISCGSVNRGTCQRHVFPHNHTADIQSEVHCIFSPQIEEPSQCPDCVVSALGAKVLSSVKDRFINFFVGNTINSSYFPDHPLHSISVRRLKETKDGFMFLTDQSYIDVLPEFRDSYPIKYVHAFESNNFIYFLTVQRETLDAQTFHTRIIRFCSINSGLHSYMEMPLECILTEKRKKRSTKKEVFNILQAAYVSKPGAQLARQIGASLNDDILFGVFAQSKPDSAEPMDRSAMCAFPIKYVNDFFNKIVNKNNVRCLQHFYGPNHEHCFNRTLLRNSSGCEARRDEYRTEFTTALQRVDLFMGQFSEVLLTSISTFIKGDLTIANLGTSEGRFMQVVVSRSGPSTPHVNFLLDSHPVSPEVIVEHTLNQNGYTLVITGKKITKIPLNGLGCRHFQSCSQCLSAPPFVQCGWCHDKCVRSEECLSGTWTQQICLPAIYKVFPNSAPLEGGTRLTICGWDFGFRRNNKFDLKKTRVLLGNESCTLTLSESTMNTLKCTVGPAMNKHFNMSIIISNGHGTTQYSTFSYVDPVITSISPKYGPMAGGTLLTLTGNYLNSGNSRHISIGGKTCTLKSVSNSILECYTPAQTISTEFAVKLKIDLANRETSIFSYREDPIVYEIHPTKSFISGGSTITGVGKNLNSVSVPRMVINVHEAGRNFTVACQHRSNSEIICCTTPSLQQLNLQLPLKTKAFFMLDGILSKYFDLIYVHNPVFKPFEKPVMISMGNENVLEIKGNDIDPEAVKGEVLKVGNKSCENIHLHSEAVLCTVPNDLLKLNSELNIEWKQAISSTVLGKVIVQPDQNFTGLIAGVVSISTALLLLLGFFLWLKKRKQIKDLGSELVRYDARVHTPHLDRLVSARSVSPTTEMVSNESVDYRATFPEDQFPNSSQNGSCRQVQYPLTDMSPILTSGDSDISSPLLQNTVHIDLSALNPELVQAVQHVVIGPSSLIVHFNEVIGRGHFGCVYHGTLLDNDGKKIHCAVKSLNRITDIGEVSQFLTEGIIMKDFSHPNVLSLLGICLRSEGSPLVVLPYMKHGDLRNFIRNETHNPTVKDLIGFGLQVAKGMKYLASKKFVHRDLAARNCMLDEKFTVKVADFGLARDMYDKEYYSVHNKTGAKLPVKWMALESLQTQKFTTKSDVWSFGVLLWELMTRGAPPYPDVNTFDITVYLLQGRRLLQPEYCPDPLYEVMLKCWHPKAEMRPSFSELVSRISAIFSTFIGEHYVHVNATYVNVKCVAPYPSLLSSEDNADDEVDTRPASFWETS

Structure (SMILES): CN1CCC(n2c(=O)[nH]c3nccc(Oc4ccc(NC(=O)c5cnn(-c6ncccc6F)c5C(F)(F)F)cc4F)c32)CC1 [Example 41, N-(3-fluoro-4-((1-(1-methylpiperidine-4-yl)-2-oxo-2,3-dihydro-1H-imidazo[4,5-b]pyridine-7-yl)oxy)phenyl)-1-(3-fluoropyridine-2-yl)-5-(trifluoromethyl)-1H-pyrazole-4-carboxamide]
IC50 (cMET): > 5000 nM | IC50 (RON): < 50 nM

Structure (SMILES): O=C(Nc1ccc(Oc2ccnc3[nH]c(=O)n(C4CCOC4)c23)c(F)c1)c1cnn(-c2ncccc2F)c1C(F)(F)F (stereo not drawn) [Example 40, N-(3-fluoro-4-((2-oxo-1-(tetrahydrofuran-3-yl)-2,3-dihydro-1H-imidazo[4,5-b]pyridine-7-yl)oxy)phenyl)-1-(3-fluoropyridine-2-yl)-5-(trifluoromethyl)-1H-pyrazole-4-carboxamide]
IC50 (cMET): 500 to 5000 nM | IC50 (RON): < 50 nM

Structure (SMILES): CC(C)n1c(=O)[nH]c2nccc(Oc3ccc(NC(=O)c4cnn(-c5nccc6ccccc56)c4C(F)(F)F)cc3F)c21 [Example 20, N-(3-fluoro-4-((1-isopropyl-2-oxo-2,3-dihydro-1H-imidazo[4,5-b]pyridine-7-yl)oxy)phenyl)-1-(isoquinoline-1-yl)-5-(trifluoromethyl)-1H-pyrazole-4-carboxamide]
IC50 (cMET): 500 to 5000 nM | IC50 (RON): < 50 nM

Structure (SMILES): Cc1cccnc1-n1ncc(C(=O)Nc2ccc(Oc3ccnc4[nH]c(=O)n(C(C)C)c34)c(F)c2)c1C(F)(F)F [Example 8, N-(3-fluoro-4-((1-isopropyl-2-oxo-2,3-dihydro-1H-imidazo[4,5-b]pyridine-7-yl)oxy)phenyl)-1-(3-methylpyridine-2-yl)-5-(trifluoromethyl)-1H-pyrazole-4-carboxamide]
IC50 (cMET): 500 to 5000 nM | IC50 (RON): < 50 nM

Structure (SMILES): Cc1c(C(=O)Nc2ccc(Oc3ccnc4[nH]c(=O)n(C(C)C)c34)c(F)c2)cnn1-c1cncnc1 [Example 5, N-(3-fluoro-4-((1-isopropyl-2-oxo-2,3-dihydro-1H-imidazo[4,5-b]pyridine-7-yl)oxy)phenyl)-5-methyl-1-(pyrimidine-5-yl)-1H-pyrazole-4-carboxamide]
IC50 (cMET): 500 to 5000 nM | IC50 (RON): 50 to 500 nM

Results, then the compound that gave them:

IC50 (cMET): 500 to 5000 nM | IC50 (RON): 50 to 500 nM
Structure (SMILES): CC(C)n1c(=O)[nH]c2nccc(Oc3ccc(NC(=O)c4cnn(-c5cc(C6CC6)ccn5)c4C(F)(F)F)cc3F)c21 [Example 31, 1-(4-cyclopropylpyridine-2-yl)-N-(3-fluoro-4-((1-isopropyl-2-oxo-2,3-dihydro-1H-imidazo[4,5-b]pyridine-7-yl)oxy)phenyl)-5-(trifluoromethyl)-1H-pyrazole-4-carboxamide]

IC50 (cMET): > 5000 nM | IC50 (RON): 50 to 500 nM
Structure (SMILES): Cc1ccc(-n2ncc(C(=O)Nc3ccc(Oc4ccnc5[nH]c(=O)n(C(C)C)c45)c(F)c3)c2C(F)(F)F)nc1 [Example 9, N-(3-fluoro-4-((1-isopropyl-2-oxo-2,3-dihydro-1H-imidazo[4,5-b]pyridine-7-yl)oxy)phenyl)-1-(5-methylpyridine-2-yl)-5-(trifluoromethyl)-1H-pyrazole-4-carboxamide]

IC50 (cMET): > 5000 nM | IC50 (RON): < 50 nM
Structure (SMILES): CC(C)n1c(=O)[nH]c2nccc(Oc3ccc(NC(=O)c4cnn(-c5cc(Br)ccn5)c4C(F)(F)F)cc3F)c21 [Example 16, 1-(4-bromopyridine-2-yl)-N-(3-fluoro-4-((1-isopropyl-2-oxo-2,3-dihydro-1H-imidazo[4,5-b]pyridine-7-yl)oxy)phenyl)-5-(trifluoromethyl)-1H-pyrazole-4-carboxamide]

IC50 (cMET): > 5000 nM | IC50 (RON): < 50 nM
Structure (SMILES): Cc1ccnc(-n2ncc(C(=O)Nc3ccc(Oc4ccnc5[nH]c(=O)n(C(C)C)c45)c(F)c3)c2C(F)(F)F)c1 [Example 14, N-(3-fluoro-4-((1-isopropyl-2-oxo-2,3-dihydro-1H-imidazo[4,5-b]pyridine-7-yl)oxy)phenyl)-1-(4-methylpyridine-2-yl)-5-(trifluoromethyl)-1H-pyrazole-4-carboxamide]
